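Where inhibition never reached the appropriate level, the endpoint shown equals the highest concentration tested. Otherwise, values were interpolated linearly from a five-concentration, 48-hour dose response in 96-well plates. Abbreviation: GI50, concentration required for 50% inhibition of growth.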 The source made the active and inactive calls. Rule as the data show it: active = GI50 up to about 1.1 µM and inactive = higher.
Columns and labels:
Assay in all cases: growth of human tumour cells (NCI), 48 h
ACHN = test system: ACHN
EKVX = test system: EKVX
HOP-62 = test system: HOP-62
HOP-92 = test system: HOP-92
IGROV-1 = test system: IGROV-1
K562 = test system: K562
LOX IMVI = test system: LOX IMVI
Malme-3M = test system: Malme-3M
NCI-H23 = test system: NCI-H23
NCI-H522 = test system: NCI-H522
OVCAR-4 = test system: OVCAR-4
OVCAR-5 = test system: OVCAR-5
OVCAR-8 = test system: OVCAR-8
RPMI-8226 = test system: RPMI-8226
SK-MEL-28 = test system: SK-MEL-28
SK-MEL-2 = test system: SK-MEL-2
SK-OV-3 = test system: SK-OV-3
TK-10 = test system: TK-10
U-251 = test system: U-251
HL-60 = test system: HL-60

Compound | GI50 (ACHN) | GI50 (EKVX) | GI50 (HOP-62) | GI50 (HOP-92) | GI50 (IGROV-1) | GI50 (K562) | GI50 (LOX IMVI) | GI50 (Malme-3M) | GI50 (NCI-H23) | GI50 (NCI-H522) | GI50 (OVCAR-4) | GI50 (OVCAR-5) | GI50 (OVCAR-8) | GI50 (RPMI-8226) | GI50 (SK-MEL-28) | GI50 (SK-MEL-2) | GI50 (SK-OV-3) | GI50 (TK-10) | GI50 (U-251) | GI50 (HL-60)
COc1cc(C2c3cc4c(cc3[C@@H](Nc3ccc(F)cc3)C3COC(=O)[C@H]23)OCO4)cc(OC)c1O (some centres not stated) | 0.476 µM (active) | 3.76 µM (inactive) | 0.635 µM (active) | 2.91 µM (inactive) | 5.31 µM (inactive) | 3.87 µM (inactive) | 0.753 µM (active) | 2.48 µM (inactive) | 1.3 µM (inactive) | 2.88 µM (inactive) | 15.1 µM (inactive) | 5.3 µM (inactive) | 2.53 µM (inactive) | 1.1 µM (active) | 7.69 µM (inactive) | 6.49 µM (inactive) | 3.45 µM (inactive) | 4.88 µM (inactive) | 1.09 µM (active) | –
CC(=O)/C(=C\NC(=S)Nc1ccc(S(N)(=O)=O)cc1)C(=O)Nc1ccccc1C | 52.5 µM (inactive) | 66.5 µM (inactive) | 95.3 µM (inactive) | 37.3 µM (inactive) | 55.3 µM (inactive) | 32.4 µM (inactive) | 20 µM (inactive) | – | 71.3 µM (inactive) | 41.7 µM (inactive) | 36.9 µM (inactive) | 99.3 µM (inactive) | 72.9 µM (inactive) | 30.3 µM (inactive) | – | 51.9 µM (inactive) | 34.2 µM (inactive) | 88.7 µM (inactive) | 45 µM (inactive) | 16.1 µM (inactive)
COC(=O)c1cccc2c1Oc1ccccc1S2 | 61.2 µM (inactive) | 39.4 µM (inactive) | > 100 µM (inactive) | 25.8 µM (inactive) | 56.2 µM (inactive) | 57.9 µM (inactive) | > 100 µM (inactive) | – | – | 27.1 µM (inactive) | 66.4 µM (inactive) | 73.8 µM (inactive) | 74.3 µM (inactive) | 61.1 µM (inactive) | 96.8 µM (inactive) | > 100 µM (inactive) | > 100 µM (inactive) | > 100 µM (inactive) | 59.6 µM (inactive) | 8.18 µM (inactive)
N/C(=N\c1ccc(Cl)cc1)NS(=O)(=O)c1ccc(-c2ccccn2)s1 | 16.4 µM (inactive) | 12.1 µM (inactive) | 18.1 µM (inactive) | 13 µM (inactive) | 16.1 µM (inactive) | 15.4 µM (inactive) | 17.5 µM (inactive) | 12.4 µM (inactive) | 15.9 µM (inactive) | 9.27 µM (inactive) | 11.5 µM (inactive) | 21.4 µM (inactive) | 19 µM (inactive) | 16.9 µM (inactive) | 19.4 µM (inactive) | 14.1 µM (inactive) | 22.1 µM (inactive) | 17.3 µM (inactive) | 15 µM (inactive) | –
O=C(NN1C(=O)/C(=C/c2ccc(Cl)cc2)N=C1c1ccccc1)c1c(Cl)c(Cl)c(Cl)c(Cl)c1-c1nc2ccccc2[nH]1 | 22.1 µM (inactive) | 19.4 µM (inactive) | < 0.01 µM (active) | 11.6 µM (inactive) | 2.47 µM (inactive) | 4.28 µM (inactive) | 8.79 µM (inactive) | 20.8 µM (inactive) | 13.4 µM (inactive) | 18.2 µM (inactive) | – | 29.1 µM (inactive) | 27.9 µM (inactive) | – | 20.3 µM (inactive) | 18.6 µM (inactive) | < 0.01 µM (active) | – | – | 18.9 µM (inactive)
O=C(ON=c1c2ccccc2ccc2ccccc12)c1cc([N+](=O)[O-])cc([N+](=O)[O-])c1 | 45.4 µM (inactive) | 89.9 µM (inactive) | > 100 µM (inactive) | 23.1 µM (inactive) | > 100 µM (inactive) | 21.8 µM (inactive) | 90.2 µM (inactive) | 16.8 µM (inactive) | > 100 µM (inactive) | – | 38.2 µM (inactive) | > 100 µM (inactive) | 94.8 µM (inactive) | 48.5 µM (inactive) | > 100 µM (inactive) | > 100 µM (inactive) | > 100 µM (inactive) | > 100 µM (inactive) | 70.6 µM (inactive) | 28 µM (inactive)
N#CC(Nc1ccccc1)c1ccc(C(C#N)Nc2ccccc2)cc1 (configuration not stated) | 22.3 µM (inactive) | > 100 µM (inactive) | – | 28.1 µM (inactive) | 34.6 µM (inactive) | 0.724 µM (active) | 1.17 µM (inactive) | > 100 µM (inactive) | 41.5 µM (inactive) | > 100 µM (inactive) | > 100 µM (inactive) | > 100 µM (inactive) | > 100 µM (inactive) | – | 41.2 µM (inactive) | > 100 µM (inactive) | > 100 µM (inactive) | 28.4 µM (inactive) | 25.4 µM (inactive) | 5.79 µM (inactive)
